Source: ChEMBL document CHEMBL3414499, “Characterization of two distinct structural classes of selective aldehyde dehydrogenase 1A1 inhibitors” (J Med Chem, 2015)
Calls of active or inactive are those of the source. The rule behind the calls is not given here.

Key:
[1] = biological target: T1, Aldehyde dehydrogenase, mitochondrial (Homo sapiens) (UniProt P05091); test: Activation of recombinant human ALDH2 using propionaldehyde as substrate at 20 uM preincubated for 2 mins with NAD+ followed by substrate addition by UV-Vis spectrophotometric analysis
T1 sequence (whole entry): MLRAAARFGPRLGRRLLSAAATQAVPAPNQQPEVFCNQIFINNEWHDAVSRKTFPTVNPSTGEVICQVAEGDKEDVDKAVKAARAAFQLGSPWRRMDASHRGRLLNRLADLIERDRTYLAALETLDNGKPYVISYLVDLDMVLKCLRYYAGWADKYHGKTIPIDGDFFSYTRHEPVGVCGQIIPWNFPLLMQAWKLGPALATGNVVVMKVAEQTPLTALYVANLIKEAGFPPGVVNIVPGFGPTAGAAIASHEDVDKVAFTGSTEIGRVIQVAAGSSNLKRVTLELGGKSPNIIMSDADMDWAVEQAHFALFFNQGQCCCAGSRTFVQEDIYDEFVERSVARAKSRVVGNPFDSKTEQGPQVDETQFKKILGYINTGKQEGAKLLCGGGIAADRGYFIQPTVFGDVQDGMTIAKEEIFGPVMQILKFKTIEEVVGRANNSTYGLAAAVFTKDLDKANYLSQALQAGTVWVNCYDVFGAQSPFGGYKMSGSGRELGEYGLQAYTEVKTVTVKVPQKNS

[2] = biological target: T2, Aldehyde dehydrogenase, dimeric NADP-preferring (Homo sapiens) (UniProt P30838); test: Activation of recombinant human ALDH3A1 using benzaldehyde as substrate at 20 uM preincubated for 2 mins with NAD+ followed by substrate addition by UV-Vis spectrophotometric analysis
T2 sequence (whole entry): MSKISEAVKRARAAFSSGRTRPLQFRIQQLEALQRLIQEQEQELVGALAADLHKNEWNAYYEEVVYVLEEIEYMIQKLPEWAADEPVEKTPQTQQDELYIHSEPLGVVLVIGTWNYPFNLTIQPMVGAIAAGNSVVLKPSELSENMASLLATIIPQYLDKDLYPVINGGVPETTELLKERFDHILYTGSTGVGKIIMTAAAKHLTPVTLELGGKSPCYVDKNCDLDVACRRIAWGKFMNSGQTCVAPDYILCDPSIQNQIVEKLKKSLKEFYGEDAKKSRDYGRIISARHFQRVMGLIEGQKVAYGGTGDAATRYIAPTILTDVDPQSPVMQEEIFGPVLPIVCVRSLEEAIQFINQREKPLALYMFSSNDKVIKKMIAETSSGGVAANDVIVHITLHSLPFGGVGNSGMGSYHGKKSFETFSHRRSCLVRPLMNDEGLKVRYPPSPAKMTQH

[3] = biological target: T3, Retinaldehyde dehydrogenase 3 (Homo sapiens) (UniProt P47895); test: Activation of recombinant human ALDH1A3 using propionaldehyde as substrate at 100 uM preincubated for 2 mins with NAD+ followed by substrate addition by UV-Vis spectrophotometric analysis
T3 sequence (whole entry): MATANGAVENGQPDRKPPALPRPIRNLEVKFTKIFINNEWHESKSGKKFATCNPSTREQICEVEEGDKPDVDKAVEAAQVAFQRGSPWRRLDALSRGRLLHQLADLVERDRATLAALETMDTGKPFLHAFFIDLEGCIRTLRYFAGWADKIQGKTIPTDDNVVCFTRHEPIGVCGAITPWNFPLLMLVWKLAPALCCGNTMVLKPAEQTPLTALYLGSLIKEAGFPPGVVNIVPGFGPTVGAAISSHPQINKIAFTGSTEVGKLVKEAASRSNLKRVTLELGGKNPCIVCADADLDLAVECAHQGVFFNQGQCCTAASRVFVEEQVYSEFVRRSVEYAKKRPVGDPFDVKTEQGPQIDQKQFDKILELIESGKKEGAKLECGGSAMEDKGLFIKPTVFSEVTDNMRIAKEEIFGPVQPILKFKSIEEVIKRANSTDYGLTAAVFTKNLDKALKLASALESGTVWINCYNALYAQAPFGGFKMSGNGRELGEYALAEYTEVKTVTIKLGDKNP

[4] = biological target: T1, Aldehyde dehydrogenase, mitochondrial (Homo sapiens); test: Inhibition of recombinant human ALDH2 using propionaldehyde as substrate at 100 uM preincubated for 2 mins with NAD+ followed by substrate addition by UV-Vis spectrophotometric analysis
[5] = biological target: T3, Retinaldehyde dehydrogenase 3 (Homo sapiens); test: Inhibition of recombinant human ALDH1A3 using propionaldehyde as substrate at 100 uM preincubated for 2 mins with NAD+ followed by substrate addition by UV-Vis spectrophotometric analysis
[6] = biological target: T4, Aldehyde dehydrogenase, mitochondrial (Homo sapiens, UniProt P05091); test: Inhibition of recombinant human ALDH2 using propionaldehyde as substrate preincubated for 2 mins with NAD+ followed by substrate addition by UV-Vis spectrophotometric analysis
T4 sequence (P05091 whole entry): T1 sequence (whole entry)

[7] = biological target: T5, Aldehyde dehydrogenase 1A1 (Homo sapiens, UniProt P00352); test: Inhibition of recombinant human ALDH1A1 using propionaldehyde as substrate preincubated for 2 mins with NAD+ followed by substrate addition by UV-Vis spectrophotometric analysis
T5 sequence (P00352 whole entry): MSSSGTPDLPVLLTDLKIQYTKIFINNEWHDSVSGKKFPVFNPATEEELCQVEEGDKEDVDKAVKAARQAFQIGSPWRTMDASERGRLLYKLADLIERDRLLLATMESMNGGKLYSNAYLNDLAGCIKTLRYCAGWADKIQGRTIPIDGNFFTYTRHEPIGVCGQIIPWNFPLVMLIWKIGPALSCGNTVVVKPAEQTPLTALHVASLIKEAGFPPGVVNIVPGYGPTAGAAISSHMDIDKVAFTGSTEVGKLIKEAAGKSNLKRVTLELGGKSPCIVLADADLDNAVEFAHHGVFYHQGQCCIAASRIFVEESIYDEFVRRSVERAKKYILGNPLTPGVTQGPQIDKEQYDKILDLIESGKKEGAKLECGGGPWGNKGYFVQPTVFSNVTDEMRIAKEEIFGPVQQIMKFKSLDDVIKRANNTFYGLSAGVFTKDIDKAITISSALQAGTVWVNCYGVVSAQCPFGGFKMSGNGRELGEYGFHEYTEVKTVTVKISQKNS

Structure (SMILES)	Activity [1] [%]	Activity [2] [%]	Activity [3]	inhibition [4]	inhibition [5]	IC50 [6] [µM]	IC50 [7] [µM]
CC(C)CCn1c(CN2CCN(C(=O)c3ccco3)CC2)nc2c1c(=O)n(C)c(=O)n2C	< 10	< 10	Active	inactive	–	–	–
Cn1c(=O)c2c(nc(CN3CCC(C(N)=O)CC3)n2CCCc2ccccc2)n(C)c1=O	< 10	< 10	–	–	inactive	> 100	–
CC(C)CCn1c(CN2CCOCC2)nc2c1c(=O)n(C)c(=O)n2C	< 10	< 10	–	–	inactive	> 100	–
Cn1c(=O)c2c(nc(N3CCN(Cc4ccccc4)CC3)n2Cc2cccc(Cl)c2)n(C)c1=O	< 10	< 10	Active	inactive	–	–	> 20
CC(C)CCn1c(CN(C)Cc2ccccc2)nc2c1c(=O)n(C)c(=O)n2C	< 10	< 10	Active	–	–	> 100	3.4
Cn1c(=O)c2c(nc(N3CCOCC3)n2Cc2ccccc2F)n(C)c1=O	< 10	< 10	Active	inactive	–	–	> 20
CCCCn1c(CN2CCN(c3cccc(Cl)c3)CC2)nc2c1c(=O)n(C)c(=O)n2C	< 10	< 10	–	–	–	> 100	> 20
CCCCn1c(Oc2ccc(C(=O)OC)cc2)nc2c1c(=O)n(C)c(=O)n2C	< 10	< 10	Active	inactive	–	–	5.2
Cn1c(=O)c2c(nc(SCC(N)=O)n2Cc2ccccc2F)n(C)c1=O	< 10	< 10	Active	inactive	–	–	14
CCN1CCN(Cc2nc3c(c(=O)n(C)c(=O)n3C)n2CC(=O)c2ccccc2)CC1	< 10	< 10	–	inactive	inactive	–	–
CCCCn1c(CN2CCN(c3ccc(OC)cc3)CC2)nc2c1c(=O)n(C)c(=O)n2C	< 10	< 10	–	inactive	–	–	> 20
